From ChEMBL document CHEMBL1138105, “Highly potent and selective zwitterionic agonists of the delta-opioid receptor. Part 1” (Bioorg Med Chem Lett, 2006) come the findings set out here.

SMILES strings stand for the structures. Activity calls are given as the source filed them. No cut-off for these calls is given here.

Test system in one data set: not listed separately
The experiment in a line: Volume of distribution in dog. The class given is ADME, organism-based, Canis lupus familiaris. To be noted: in vivo, read-out: Vdss.
Regarding `COc1cccc([C@@H](c2ccc3c(c2)CN(CC(=O)O)CC3)N2C[C@@H](C)N(Cc3ccccc3)C[C@@H]2C)c1`, the Vd turned out to be 5.4 L/kg.

In a further data set the target is Delta-type opioid receptor (Mus musculus, UniProt P32300).
Sequence of Delta-type opioid receptor (Mus musculus, UniProt P32300) (P32300 whole entry): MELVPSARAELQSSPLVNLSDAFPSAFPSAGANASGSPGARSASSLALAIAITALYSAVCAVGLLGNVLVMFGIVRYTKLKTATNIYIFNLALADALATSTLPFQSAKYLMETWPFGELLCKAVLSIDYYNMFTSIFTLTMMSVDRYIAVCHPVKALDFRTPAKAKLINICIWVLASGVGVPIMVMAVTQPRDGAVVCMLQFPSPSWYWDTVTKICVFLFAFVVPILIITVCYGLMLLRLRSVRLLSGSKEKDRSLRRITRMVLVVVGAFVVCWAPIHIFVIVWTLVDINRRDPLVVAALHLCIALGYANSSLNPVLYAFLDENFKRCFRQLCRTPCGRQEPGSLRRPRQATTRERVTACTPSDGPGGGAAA
Settings: not given
By IC50 is commonly meant the concentration that inhibits the measured activity by half. Lower therefore signals greater potency in that assay. `C[C@@H]1CN([C@@H](c2cccc(O)c2)c2ccc3c(c2)CN(CC(=O)O)C3)[C@@H](C)CN1Cc1ccccc1` showed an IC50 of 0.501 nM.
On the same count and under the same terms, for `C[C@@H]1CN([C@@H](c2cccc(F)c2)c2ccc3c(c2)CN(CCC(=O)O)C3)[C@@H](C)CN1Cc1ccccc1` the value was 25.1 nM; for `COc1cccc([C@@H](c2ccc3c(c2)CN(CCC(=O)O)CC3)N2C[C@@H](C)N(Cc3ccccc3)C[C@@H]2C)c1`, 12.6 nM; for `COc1cccc([C@@H](c2ccc3c(c2)CN(CCC(=O)O)C3)N2C[C@@H](C)N(Cc3ccccc3)C[C@@H]2C)c1`, 631 nM.
Consider `C[C@@H]1CN([C@@H](c2ccccc2)c2ccc3c(c2)CN(CCC(=O)O)C3)[C@@H](C)CN1Cc1ccccc1`, for which the IC50 is 63.1 nM.
Still for that read-out and setting: the result for `C[C@@H]1CN([C@@H](c2cccc(O)c2)c2ccc3c(c2)CN(C(=O)CC(=O)O)CC3)[C@@H](C)CN1Cc1ccccc1` reads 0.001 nM.
The compound `COc1cccc([C@@H](c2ccc3c(c2)CN(CC(=O)O)C3)N2C[C@@H](C)N(Cc3ccccc3)C[C@@H]2C)c1` had an IC50 of 25.1 nM.
Still for that read-out and setting: for `C[C@@H]1CN([C@@H](c2cccc(O)c2)c2ccc3c(c2)CN(Cc2ccccc2C(=O)O)C3)[C@@H](C)CN1Cc1ccccc1` the value was 3.16 nM; for `C[C@@H]1CN([C@@H](c2cccc(O)c2)c2ccc3c(c2)CN(C(=O)c2cccc(C(=O)O)c2)C3)[C@@H](C)CN1Cc1ccccc1`, 1.58 nM.
On the same count and under the same terms, for `COc1cccc([C@@H](c2ccc3c(c2)CN(CC(=O)O)CC3)N2C[C@@H](C)N(Cc3ccccc3)C[C@@H]2C)c1` the value was 2 nM.
In the case of `C[C@@H]1CN([C@@H](c2cccc(O)c2)c2ccc3c(c2)CN(C(=O)c2ccccc2C(=O)O)C3)[C@@H](C)CN1Cc1ccccc1`, the IC50 was 0.316 nM.
Take `C[C@@H]1CN([C@@H](c2cccc(O)c2)c2ccc3c(c2)CN(CC(=O)O)CC3)[C@@H](C)CN1Cc1ccccc1`: half-maximal inhibition (IC50) required 0.0398 nM.
On the same count and under the same terms, for `C=CCN1C[C@H](C)N([C@H](c2ccc(C(=O)N(CC)CC)cc2)c2cccc(O)c2)C[C@H]1C` the value was 0.631 nM.
Still for that read-out and setting: the result for `COc1cccc([C@@H](c2ccc3c(c2)CN(C(=O)CC(=O)O)CC3)N2C[C@@H](C)N(Cc3ccccc3)C[C@@H]2C)c1` reads 15.8 nM.
Still for that read-out and setting: for `C[C@@H]1CN([C@@H](c2cccc(O)c2)c2ccc3c(c2)CN(C(=O)C(=O)O)CC3)[C@@H](C)CN1Cc1ccccc1` the value was 0.00158 nM; for `C[C@@H]1CN([C@H](c2ccc(CCC(=O)O)cc2)c2cccc(O)c2)[C@@H](C)CN1Cc1ccccc1`, 0.126 nM; for `C[C@@H]1CN([C@@H](c2cccc(F)c2)c2ccc3c(c2)CN(CCC(=O)O)CC3)[C@@H](C)CN1Cc1ccccc1`, 100 nM.
As to `C[C@@H]1CN([C@H](c2ccc(CC(=O)O)cc2)c2cccc(O)c2)[C@@H](C)CN1Cc1ccccc1`, the 50% inhibitory concentration (IC50) was 0.158 nM.
Still for that read-out and setting: for `C[C@@H]1CN([C@@H](c2cccc(O)c2)c2ccc3c(c2)CN(CCC(=O)O)C3)[C@@H](C)CN1Cc1ccccc1` the value was 1 nM; for `C[C@@H]1CN([C@@H](c2cccc(O)c2)c2ccc3c(c2)CN(CCC(=O)O)CC3)[C@@H](C)CN1Cc1ccccc1`, 0.00501 nM; for `C[C@@H]1CN([C@@H](c2cccc(F)c2)c2ccc3c(c2)CN(C(=O)CC(=O)O)CC3)[C@@H](C)CN1Cc1ccccc1`, 20 nM.
`C[C@@H]1CN([C@H](c2ccc(-c3ccccc3C(=O)O)cc2)c2cccc(O)c2)[C@@H](C)CN1Cc1ccccc1` had an IC50 of 0.02 nM.

A further data set relates to Mus musculus. The data set can be described thus: Effect on locomotor activity in mouse hyper locomotion model at 1000 ug/kg, iv.
Settings: not given
Format: functional, organism-based.
As for `C[C@@H]1CN([C@H](c2ccc(CC(=O)O)cc2)c2cccc(O)c2)[C@@H](C)CN1Cc1ccccc1`, the outcome was Active.

The subject of another data set is Mus musculus. The experiment in a line: Effect on locomotor activity in mouse hyper locomotion model at 100 ug/kg, iv. The class given is functional, organism-based.
Settings: not given
As to `C[C@@H]1CN([C@H](c2ccc(CCC(=O)O)cc2)c2cccc(O)c2)[C@@H](C)CN1Cc1ccccc1`, the result was Active.

The target of another data set is Kappa-type opioid receptor (Cavia porcellus, UniProt P41144). The experiment in a line: Agonist activity at kappa opioid receptor in myenteric plexus muscle from guinea pig. The class given is functional.
Sequence of Kappa-type opioid receptor (P41144 whole entry): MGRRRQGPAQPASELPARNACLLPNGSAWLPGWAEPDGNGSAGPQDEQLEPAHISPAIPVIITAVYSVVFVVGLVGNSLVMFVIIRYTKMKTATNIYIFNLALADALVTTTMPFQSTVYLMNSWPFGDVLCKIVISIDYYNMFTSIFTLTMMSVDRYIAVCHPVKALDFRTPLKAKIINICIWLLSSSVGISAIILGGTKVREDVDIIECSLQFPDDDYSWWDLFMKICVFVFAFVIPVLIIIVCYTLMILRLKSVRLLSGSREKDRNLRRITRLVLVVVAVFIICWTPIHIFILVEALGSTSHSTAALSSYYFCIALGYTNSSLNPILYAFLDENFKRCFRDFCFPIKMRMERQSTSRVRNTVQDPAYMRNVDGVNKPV
Settings: not given
Turning to `C[C@@H]1CN([C@@H](c2cccc(O)c2)c2ccc3c(c2)CN(CC(=O)O)C3)[C@@H](C)CN1Cc1ccccc1`, the IC50 was 1260 nM.
Consider `COc1cccc([C@@H](c2ccc3c(c2)CN(CCC(=O)O)CC3)N2C[C@@H](C)N(Cc3ccccc3)C[C@@H]2C)c1`, for which the IC50 was 1000 nM.
Still for that read-out and setting: for `COc1cccc([C@@H](c2ccc3c(c2)CN(CCC(=O)O)C3)N2C[C@@H](C)N(Cc3ccccc3)C[C@@H]2C)c1` the value was above 10000 nM; for `C[C@@H]1CN([C@@H](c2cccc(O)c2)c2ccc3c(c2)CN(C(=O)CC(=O)O)CC3)[C@@H](C)CN1Cc1ccccc1`, 398 nM; for `C[C@@H]1CN([C@@H](c2cccc(O)c2)c2ccc3c(c2)CN(C(=O)c2cccc(C(=O)O)c2)C3)[C@@H](C)CN1Cc1ccccc1`, 1260 nM.
With `COc1cccc([C@@H](c2ccc3c(c2)CN(CC(=O)O)CC3)N2C[C@@H](C)N(Cc3ccccc3)C[C@@H]2C)c1`, the IC50 is 1260 nM.
Turning to `C[C@@H]1CN([C@@H](c2cccc(O)c2)c2ccc3c(c2)CN(C(=O)c2ccccc2C(=O)O)C3)[C@@H](C)CN1Cc1ccccc1`, the IC50 was 3980 nM.
On the same count and under the same terms, the result for `C[C@@H]1CN([C@@H](c2cccc(O)c2)c2ccc3c(c2)CN(CC(=O)O)CC3)[C@@H](C)CN1Cc1ccccc1` reads 1000 nM; that for `C[C@@H]1CN([C@@H](c2cccc(O)c2)c2ccc3c(c2)CN(C(=O)C(=O)O)CC3)[C@@H](C)CN1Cc1ccccc1`, 398 nM; that for `C[C@@H]1CN([C@@H](c2cccc(O)c2)c2ccc3c(c2)CN(CCC(=O)O)C3)[C@@H](C)CN1Cc1ccccc1`, 7940 nM.
The same measure, in the same setting: for `C[C@@H]1CN([C@@H](c2cccc(O)c2)c2ccc3c(c2)CN(CCC(=O)O)CC3)[C@@H](C)CN1Cc1ccccc1` the value was 5010 nM; for `C=CCN1C[C@H](C)N([C@H](c2ccc(C(=O)N(CC)CC)cc2)c2cccc(OC)c2)C[C@H]1C` [SNC-80], 1260 nM.

A further data set deals with Mu-type opioid receptor (Cavia porcellus, UniProt P97266). The experiment in a line: Agonist activity at mu opioid receptor in myenteric plexus muscle from guinea pig. Format: functional.
Sequence of Mu-type opioid receptor (P97266 whole entry): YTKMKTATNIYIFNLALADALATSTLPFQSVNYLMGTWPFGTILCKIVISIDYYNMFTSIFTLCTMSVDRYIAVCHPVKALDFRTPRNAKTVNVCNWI
Settings: not given
For the compound `C[C@@H]1CN([C@@H](c2cccc(O)c2)c2ccc3c(c2)CN(CC(=O)O)C3)[C@@H](C)CN1Cc1ccccc1`, the IC50 was 126 nM.
For `COc1cccc([C@@H](c2ccc3c(c2)CN(CCC(=O)O)CC3)N2C[C@@H](C)N(Cc3ccccc3)C[C@@H]2C)c1`, the IC50 was above 10000 nM.
Still for that read-out and setting: for `COc1cccc([C@@H](c2ccc3c(c2)CN(CCC(=O)O)C3)N2C[C@@H](C)N(Cc3ccccc3)C[C@@H]2C)c1` the value was above 10000 nM; for `C[C@@H]1CN([C@@H](c2cccc(O)c2)c2ccc3c(c2)CN(C(=O)CC(=O)O)CC3)[C@@H](C)CN1Cc1ccccc1`, 200 nM; for `C[C@@H]1CN([C@@H](c2cccc(O)c2)c2ccc3c(c2)CN(C(=O)c2cccc(C(=O)O)c2)C3)[C@@H](C)CN1Cc1ccccc1`, 100 nM.
In turn, `COc1cccc([C@@H](c2ccc3c(c2)CN(CC(=O)O)CC3)N2C[C@@H](C)N(Cc3ccccc3)C[C@@H]2C)c1` had an IC50 of 5010 nM.
Consider `C[C@@H]1CN([C@@H](c2cccc(O)c2)c2ccc3c(c2)CN(C(=O)c2ccccc2C(=O)O)C3)[C@@H](C)CN1Cc1ccccc1`, for which the IC50 is 50.1 nM.
On the same count and under the same terms, for `C[C@@H]1CN([C@@H](c2cccc(O)c2)c2ccc3c(c2)CN(CC(=O)O)CC3)[C@@H](C)CN1Cc1ccccc1` the value was 316 nM; for `C[C@@H]1CN([C@@H](c2cccc(O)c2)c2ccc3c(c2)CN(C(=O)C(=O)O)CC3)[C@@H](C)CN1Cc1ccccc1`, 200 nM.
The same measure, in the same setting: the result for `C[C@@H]1CN([C@@H](c2cccc(O)c2)c2ccc3c(c2)CN(CCC(=O)O)C3)[C@@H](C)CN1Cc1ccccc1` reads 631 nM.
The same measure, in the same setting: for `C[C@@H]1CN([C@@H](c2cccc(O)c2)c2ccc3c(c2)CN(CCC(=O)O)CC3)[C@@H](C)CN1Cc1ccccc1` the value was 1000 nM; for `C=CCN1C[C@H](C)N([C@H](c2ccc(C(=O)N(CC)CC)cc2)c2cccc(OC)c2)C[C@H]1C` [SNC-80], above 10000 nM.

For another data set, the target named is Delta-type opioid receptor (Homo sapiens, UniProt P41143). The data set can be described thus: Binding affinity at human delta opioid receptor expressed in CHO cells. Format: cell-based, Cricetulus griseus.
Sequence of Delta-type opioid receptor (Homo sapiens, UniProt P41143) (P41143 whole entry): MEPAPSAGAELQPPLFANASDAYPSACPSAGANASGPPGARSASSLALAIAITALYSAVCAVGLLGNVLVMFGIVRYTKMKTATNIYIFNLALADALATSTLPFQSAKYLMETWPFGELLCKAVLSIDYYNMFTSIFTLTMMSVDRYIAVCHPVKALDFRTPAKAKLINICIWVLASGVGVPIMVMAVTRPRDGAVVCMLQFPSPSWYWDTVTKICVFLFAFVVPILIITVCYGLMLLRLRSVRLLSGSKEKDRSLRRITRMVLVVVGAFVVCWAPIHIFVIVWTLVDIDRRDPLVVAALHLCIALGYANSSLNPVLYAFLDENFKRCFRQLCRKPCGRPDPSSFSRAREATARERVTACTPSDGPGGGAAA
Settings: not given
In the case of `COc1cccc([C@@H](c2ccc3c(c2)CN(CC(=O)O)CC3)N2C[C@@H](C)N(Cc3ccccc3)C[C@@H]2C)c1`, the IC50 is 5.01 nM.

Test system in the next data set: not listed separately
The experiment in a line: Distribution coefficient of the compound, log D at pH 7.4. Format: physicochemical. The following applies: octanol/water.
For orientation: logD means the decadic logarithm of the distribution of all forms, ionised or not, between an organic phase and buffer at a given pH. Higher therefore signals higher lipophilicity. On to `COc1cccc([C@@H](c2ccc3c(c2)CN(CCC(=O)O)CC3)N2C[C@@H](C)N(Cc3ccccc3)C[C@@H]2C)c1`, for which the logD was determined as 2.3.
The same measure, in the same setting: for `C[C@@H]1CN([C@@H](c2cccc(O)c2)c2ccc3c(c2)CN(C(=O)CC(=O)O)CC3)[C@@H](C)CN1Cc1ccccc1` the value was 0.4; for `COc1cccc([C@@H](c2ccc3c(c2)CN(CC(=O)O)CC3)N2C[C@@H](C)N(Cc3ccccc3)C[C@@H]2C)c1`, 2.5; for `C[C@@H]1CN([C@@H](c2cccc(O)c2)c2ccc3c(c2)CN(CC(=O)O)CC3)[C@@H](C)CN1Cc1ccccc1`, 2.1.
On the same count and under the same terms, the result for `COc1cccc([C@@H](c2ccc3c(c2)CN(C(=O)CC(=O)O)CC3)N2C[C@@H](C)N(Cc3ccccc3)C[C@@H]2C)c1` reads 1.3.
`C[C@@H]1CN([C@@H](c2cccc(O)c2)c2ccc3c(c2)CN(C(=O)C(=O)O)CC3)[C@@H](C)CN1Cc1ccccc1` came in with a logD of 1.6.
Same read-out and setting: the result for `C[C@@H]1CN([C@H](c2ccc(CCC(=O)O)cc2)c2cccc(O)c2)[C@@H](C)CN1Cc1ccccc1` reads 2.1; that for `C[C@@H]1CN([C@H](c2ccc(CC(=O)O)cc2)c2cccc(O)c2)[C@@H](C)CN1Cc1ccccc1`, 1.1.
Same read-out and setting: for `C[C@@H]1CN([C@@H](c2cccc(O)c2)c2ccc3c(c2)CN(CCC(=O)O)CC3)[C@@H](C)CN1Cc1ccccc1` the value was 2.1.
Same read-out and setting: the result for `C[C@@H]1CN([C@H](c2ccc(-c3ccccc3C(=O)O)cc2)c2cccc(O)c2)[C@@H](C)CN1Cc1ccccc1` reads 2.3.

Test system in a further data set: not listed separately
The experiment in a line: Plasma clearance in dog. Format: ADME, organism-based, Canis lupus familiaris.
Settings: not given
For orientation: clearance means the rate of elimination divided by the concentration. A high value points to efficient removal. For `COc1cccc([C@@H](c2ccc3c(c2)CN(CC(=O)O)CC3)N2C[C@@H](C)N(Cc3ccccc3)C[C@@H]2C)c1`, the clearance turned out to be 17 mL/min/kg.

Test system in the next data set: not listed separately
The data set can be described thus: Oral bioavailability in dog. The class given is ADME, organism-based, Canis lupus familiaris. To be noted: in vivo.
What is called bioavailability is dose-corrected exposure relative to a reference, in per cent. Regarding `COc1cccc([C@@H](c2ccc3c(c2)CN(CC(=O)O)CC3)N2C[C@@H](C)N(Cc3ccccc3)C[C@@H]2C)c1`, the bioavailability was found to be 20%.

A further data set relates to Mus musculus. The data set can be described thus: Effect on locomotor activity in mouse hyper locomotion model at 400 ug/kg, iv. The class given is functional, organism-based.
Settings: not given
As for `C=CCN1C[C@H](C)N([C@H](c2ccc(C(=O)N(CC)CC)cc2)c2cccc(OC)c2)C[C@H]1C` [SNC-80], the outcome was Active.
